According to patent publication US11077090B2, “Compounds and compositions and uses thereof” (Sunovion Pharmaceuticals Inc., priority 2016, dated 2021):
Where two headings read alike, the source gives them in different places.

Tested on: compound-treated mice
Experiment: Neuropharmacological assay (SmartCube): behavioral activity signature and minimal effective dose
Assay type: in vivo
Conditions: for minimal effective dose: Mus musculus, ip, MED = dose having 50% or more total activity; for AD: ADHD (probability of activity signature) / AG: analgesic (probability of activity signature) / AX: anxiolytic (probability of activity signature) / CE: cognitive enhancer (probability of activity signature) / DP: anti-depressant (probability of activity signature) / MS: mood stabilizer (probability of activity signature) / PS: anti-psychotic (probability of activity signature) / SD: sedative hypnotic (probability of activity signature) / UN: uncharacterized CNS activity (probability of activity signature): i.p. 15 min before test, most efficacious dose(s)
Summary of the method: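 Video-recorded behavior is compared algorithmically against a reference-compound database, yielding class probabilities (best dose reported). Compounds given i.p. in NMP/PEG/propylene glycol 15 min pre-test at 3 doses; potency as MED, the dose (mpk, range usually 0.3–30) reaching ≥50% total activity.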

[1] = read-out: Potency: minimal effective dose (MED)
[2] = read-out: Potency: minimal effective dose (MED), binned

Row | SMILES | minimal effective dose [1] | AD: ADHD (probability of activity signature) | AG: analgesic (probability of activity signature) | AX: anxiolytic (probability of activity signature) | CE: cognitive enhancer (probability of activity signature) | DP: anti-depressant (probability of activity signature) | MS: mood stabilizer (probability of activity signature) | PS: anti-psychotic (probability of activity signature) | SD: sedative hypnotic (probability of activity signature) | UN: uncharacterized CNS activity (probability of activity signature) | minimal effective dose [2]
1 | Cc1cc(C)c2c(c1)[C@@H](N)COC2 (single isomer, unassigned) [Example 126] | < 3 mg/kg | + (LOQ ≤ + <5%) | ++ (5% ≤ ++ <25%) | ++ (5% ≤ ++ <25%) | ++ (5% ≤ ++ <25%) | ++ (5% ≤ ++ <25%) | + (LOQ ≤ + <5%) | +++ (25% ≤ +++ <50%) | + (LOQ ≤ + <5%) | ++++ (50% ≤ ++++) | –
2 | Cl.NC1COCc2c(F)cccc21 (centres unmarked) [Example 23] | 10 to 30 mg/kg | + (LOQ ≤ + <5%) | ++ (5% ≤ ++ <25%) | +++ (25% ≤ +++ <50%) | ++ (5% ≤ ++ <25%) | ++ (5% ≤ ++ <25%) | + (LOQ ≤ + <5%) | ++ (5% ≤ ++ <25%) | + (LOQ ≤ + <5%) | ++ (5% ≤ ++ <25%) | –
3 | Cl.NC1COCc2ccccc21 (centres unmarked) [Example 12] | 10 to 30 mg/kg | + (LOQ ≤ + <5%) | ++ (5% ≤ ++ <25%) | ++ (5% ≤ ++ <25%) | ++ (5% ≤ ++ <25%) | ++ (5% ≤ ++ <25%) | + (LOQ ≤ + <5%) | ++ (5% ≤ ++ <25%) | + (LOQ ≤ + <5%) | +++ (25% ≤ +++ <50%) | –
4 | N[C@H]1COCc2cccc(Cl)c21 [Example 128] | < 3 mg/kg | + (LOQ ≤ + <5%) | ++ (5% ≤ ++ <25%) | ++ (5% ≤ ++ <25%) | +++ (25% ≤ +++ <50%) | ++ (5% ≤ ++ <25%) | + (LOQ ≤ + <5%) | ++ (5% ≤ ++ <25%) | + (LOQ ≤ + <5%) | +++ (25% ≤ +++ <50%) | –
5 | CC[C@H]1OCc2cccc(Cl)c2[C@@H]1N.Cl (single isomer, unassigned) [Example 209] | – | + (LOQ ≤ + <5%) | +++ (25% ≤ +++ <50%) | ++ (5% ≤ ++ <25%) | ++ (5% ≤ ++ <25%) | ++ (5% ≤ ++ <25%) | + (LOQ ≤ + <5%) | ++ (5% ≤ ++ <25%) | ++ (5% ≤ ++ <25%) | +++ (25% ≤ +++ <50%) | 3 to 10 mg/kg
6 | CN[C@@H]1COCc2ccc(C)cc21 [Example 141] | 3 to 10 mg/kg | + (LOQ ≤ + <5%) | ++ (5% ≤ ++ <25%) | +++ (25% ≤ +++ <50%) | ++ (5% ≤ ++ <25%) | ++ (5% ≤ ++ <25%) | ++ (5% ≤ ++ <25%) | ++ (5% ≤ ++ <25%) | + (LOQ ≤ + <5%) | +++ (25% ≤ +++ <50%) | –
7 | Cc1nc2c3c(ccc2s1)COCC3N.Cl (centres unmarked) [Example 16] | 10 to 30 mg/kg | + (LOQ ≤ + <5%) | ++ (5% ≤ ++ <25%) | +++ (25% ≤ +++ <50%) | ++ (5% ≤ ++ <25%) | + (LOQ ≤ + <5%) | + (LOQ ≤ + <5%) | ++ (5% ≤ ++ <25%) | + (LOQ ≤ + <5%) | +++ (25% ≤ +++ <50%) | –
8 | CN[C@H]1COCc2c(Cl)cccc21 (single isomer, unassigned) [Example 150] | 3 to 10 mg/kg | + (LOQ ≤ + <5%) | ++ (5% ≤ ++ <25%) | ++ (5% ≤ ++ <25%) | + (LOQ ≤ + <5%) | + (LOQ ≤ + <5%) | + (LOQ ≤ + <5%) | ++ (5% ≤ ++ <25%) | + (LOQ ≤ + <5%) | ++++ (50% ≤ ++++) | –
9 | CN[C@H]1COCc2ccc(OC)cc21 [Example 140] | 10 to 30 mg/kg | + (LOQ ≤ + <5%) | ++ (5% ≤ ++ <25%) | ++ (5% ≤ ++ <25%) | ++ (5% ≤ ++ <25%) | ++ (5% ≤ ++ <25%) | ++ (5% ≤ ++ <25%) | +++ (25% ≤ +++ <50%) | + (LOQ ≤ + <5%) | + (LOQ ≤ + <5%) | –
10 | Cc1ccc2c(c1)CO[C@@H](C)[C@H]2N [Example 189] | – | + (LOQ ≤ + <5%) | ++ (5% ≤ ++ <25%) | ++ (5% ≤ ++ <25%) | ++ (5% ≤ ++ <25%) | ++ (5% ≤ ++ <25%) | + (LOQ ≤ + <5%) | ++ (5% ≤ ++ <25%) | + (LOQ ≤ + <5%) | +++ (25% ≤ +++ <50%) | 10 to 30 mg/kg
11 | Cc1ccc2c(c1)[C@H](N)[C@@H](C)OC2 [Example 155] | 3 to 10 mg/kg | + (LOQ ≤ + <5%) | ++ (5% ≤ ++ <25%) | ++++ (50% ≤ ++++) | ++ (5% ≤ ++ <25%) | ++ (5% ≤ ++ <25%) | + (LOQ ≤ + <5%) | ++ (5% ≤ ++ <25%) | ++ (5% ≤ ++ <25%) | ++ (5% ≤ ++ <25%) | –
